Here are results for one molecule from US20200179312A1, “ANALOGUES OF CYSTEAMINE AS THERAPEUTIC AGENTS FOR CYSTIC FIBROSIS” (I.E.R.F.C. EUROPEAN INSTITUTE FOR CYSTIC FIBROSIS RESEARCH, priority 2018, published 2020).

In assay [1] the target is T1, TG2 (Homo sapiens, UniProt P21980).
T1 sequence (P21980 1-687): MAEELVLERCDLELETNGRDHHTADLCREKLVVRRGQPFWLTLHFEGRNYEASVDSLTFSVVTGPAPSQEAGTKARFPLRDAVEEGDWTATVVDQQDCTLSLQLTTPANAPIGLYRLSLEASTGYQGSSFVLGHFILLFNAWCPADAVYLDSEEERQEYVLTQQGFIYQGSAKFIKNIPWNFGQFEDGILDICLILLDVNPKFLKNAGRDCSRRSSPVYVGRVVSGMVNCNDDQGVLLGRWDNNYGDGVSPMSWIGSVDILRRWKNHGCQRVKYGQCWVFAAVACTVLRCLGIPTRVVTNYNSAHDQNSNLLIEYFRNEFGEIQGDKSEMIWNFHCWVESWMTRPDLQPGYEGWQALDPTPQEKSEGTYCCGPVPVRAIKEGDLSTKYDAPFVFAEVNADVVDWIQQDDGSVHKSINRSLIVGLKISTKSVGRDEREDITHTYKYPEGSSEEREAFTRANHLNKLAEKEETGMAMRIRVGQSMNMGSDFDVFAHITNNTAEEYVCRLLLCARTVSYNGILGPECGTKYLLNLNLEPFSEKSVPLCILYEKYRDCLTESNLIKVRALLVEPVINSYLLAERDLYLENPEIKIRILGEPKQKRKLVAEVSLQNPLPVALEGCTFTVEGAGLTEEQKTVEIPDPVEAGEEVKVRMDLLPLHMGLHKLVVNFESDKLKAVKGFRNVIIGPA
Nature of the assay: Inhibition of the PDI activity of TG2. In kind it is biochemical.

Assay [2] concerns the target T2, CFTR (Mus musculus, UniProt P26361, DEL508-508).
T2 construct: the Ussing chamber experiments (on small intestinal tissues); from tissue; host or cells: small intestine (Ussing chamber); lung and small intestine homogenates (immunoblot) of CftrF508del mice
The experiment in a line: Ussing chamber CFTR function in CftrF508del mice. In kind it is in vivo. The protocol: Driven by the positive outcome of the cell lines (immortalized and primary nasal cell) experiments, we next investigated the possibility that IE1 could rescue the CFTR protein and function as well as re-establish the autophagy pathway in CF mice model. To test this hypothesis, we used F508del-Cftr homozygous (CftrF508del\F508del) mice and control mice (Cftr WT). CftrF508del mice were administered intraperitoneally (i.p.) for 5 d with cysteamine or different concentrations of IE1 (FIG. 7). […] Next, CftrF508del mice were administered intraperitoneally (i.p.) for 5 d with cysteamine or with 3 different concentrations of IE1 (0.05M, 0.025M or 0.0125M) followed by 10 d or 20 d of vehicle only (FIG. 9).
CF mice homozygous for the delF508-CFTR mutation (abbreviated CftrF508del) in the 129/FVB outbred background (CftrtmlEUR, F508del, FVB/129) were obtained from Erasmus Medical Center Rotterdam, The Netherlands (CF coordinated action program EU FP6 LSHM-CT-2005-018932). These studies and procedures were approved by the local Ethics Committee for Animal Welfare (IACUC No 713). Young adult CF mice and their wild-type (wt) littermates were housed in static isolator cages at the animal care specific pathogen-free facility of Charles River (Calco, Italy). […]

Assay [3] concerns the target CFTR (Homo sapiens, UniProt P13569, DEL508-508). The experiment in a line: Immunoblot detection of CFTR in nasal primary cells. Set-up: Freshly isolated brushed nasal epithelial cells were collected by nasal brushing; endogenous in cells; host or cells: primary nasal epithelial cells from F508del-homozygous CF patients. The class given is cell-based. The text has this: Freshly isolated brushed nasal epithelial cells were collected by nasal brushing, as previously described (21, 21) from 10 F508del-CFTR homozygous CF patients and from 5 non-CF healthy volunteers recruited from staff at the same time points. Both patients and healthy volunteers gave written informed consent. […] Brushes with cells were immediately transferred into RPMI 1640 medium (Invitrogen) containing 1% penicillin-streptomycin (Lonza, 17-602E), in 15-ml sterilized tubes. The tubes were incubated at 37° C. for 2 h on a thermo shaker, to remove all cell from brushes; the brushes were then removed and the cells centrifuged at 800×g (2000 rpm) for 20 min. The supernatant fractions were discarded and the cell pellet treated with […] of trypsin-versene (EDTA) solution (Lonza, 17-161) for 4 min at 37° C. to disaggregate possible cell clusters. Trypsin solution was inactivated by adding 3 ml of serum-free Bronchial Epithelial cell Growth Medium BEGM (Clonetics, Lonza, CC3170). After centrifugation at 800×g (2000 rpm) for 10 min, cells were placed in CELLC T 25 flasks (Sarstedt Ltd, CS300) with 10 ml of BEGM medium. Nonspecific epithelial cells were removed during the daily cell washing and medium changes.
The proteins of cell lines lysates or lung or small intestine homogenates, obtained from treated and untreated cells or mice, were quantified by a Bio-Rad protein assay to ensure equal protein loading before immunoblot analysis. Fifty micrograms of proteins were loaded in each lane. Antibodies against SQSTM1, (Sigma Aldrich,P0067) 1:1000, BECN1 (Abcam, ab58878), 1:1000, CFTR clone CF3 (Abcam, ab2784) 1:1000 or anti-CFTR antibody 660 1:1000, Phospho-p44/42 MAPK (Erk1/2) (Thr202/Tyr204) (Cell Signaling Technology, #91101) 1:1000, TG2 (CUB7402, NEOMARKER) 1:1000 were used. Normalization was performed by probing the membrane with anti-β-actin (Cell Signaling, #4970) 1:1000 or anti-α-tubulin (Cell Signaling Technology, 2148) 1:1000.
Background: A western blot detects proteins with antibodies after separation by electrophoresis.

CFTR (Homo sapiens, UniProt P13569, DEL508-508), sequence (P13569 with tags, fused parts or gaps DEL508-508): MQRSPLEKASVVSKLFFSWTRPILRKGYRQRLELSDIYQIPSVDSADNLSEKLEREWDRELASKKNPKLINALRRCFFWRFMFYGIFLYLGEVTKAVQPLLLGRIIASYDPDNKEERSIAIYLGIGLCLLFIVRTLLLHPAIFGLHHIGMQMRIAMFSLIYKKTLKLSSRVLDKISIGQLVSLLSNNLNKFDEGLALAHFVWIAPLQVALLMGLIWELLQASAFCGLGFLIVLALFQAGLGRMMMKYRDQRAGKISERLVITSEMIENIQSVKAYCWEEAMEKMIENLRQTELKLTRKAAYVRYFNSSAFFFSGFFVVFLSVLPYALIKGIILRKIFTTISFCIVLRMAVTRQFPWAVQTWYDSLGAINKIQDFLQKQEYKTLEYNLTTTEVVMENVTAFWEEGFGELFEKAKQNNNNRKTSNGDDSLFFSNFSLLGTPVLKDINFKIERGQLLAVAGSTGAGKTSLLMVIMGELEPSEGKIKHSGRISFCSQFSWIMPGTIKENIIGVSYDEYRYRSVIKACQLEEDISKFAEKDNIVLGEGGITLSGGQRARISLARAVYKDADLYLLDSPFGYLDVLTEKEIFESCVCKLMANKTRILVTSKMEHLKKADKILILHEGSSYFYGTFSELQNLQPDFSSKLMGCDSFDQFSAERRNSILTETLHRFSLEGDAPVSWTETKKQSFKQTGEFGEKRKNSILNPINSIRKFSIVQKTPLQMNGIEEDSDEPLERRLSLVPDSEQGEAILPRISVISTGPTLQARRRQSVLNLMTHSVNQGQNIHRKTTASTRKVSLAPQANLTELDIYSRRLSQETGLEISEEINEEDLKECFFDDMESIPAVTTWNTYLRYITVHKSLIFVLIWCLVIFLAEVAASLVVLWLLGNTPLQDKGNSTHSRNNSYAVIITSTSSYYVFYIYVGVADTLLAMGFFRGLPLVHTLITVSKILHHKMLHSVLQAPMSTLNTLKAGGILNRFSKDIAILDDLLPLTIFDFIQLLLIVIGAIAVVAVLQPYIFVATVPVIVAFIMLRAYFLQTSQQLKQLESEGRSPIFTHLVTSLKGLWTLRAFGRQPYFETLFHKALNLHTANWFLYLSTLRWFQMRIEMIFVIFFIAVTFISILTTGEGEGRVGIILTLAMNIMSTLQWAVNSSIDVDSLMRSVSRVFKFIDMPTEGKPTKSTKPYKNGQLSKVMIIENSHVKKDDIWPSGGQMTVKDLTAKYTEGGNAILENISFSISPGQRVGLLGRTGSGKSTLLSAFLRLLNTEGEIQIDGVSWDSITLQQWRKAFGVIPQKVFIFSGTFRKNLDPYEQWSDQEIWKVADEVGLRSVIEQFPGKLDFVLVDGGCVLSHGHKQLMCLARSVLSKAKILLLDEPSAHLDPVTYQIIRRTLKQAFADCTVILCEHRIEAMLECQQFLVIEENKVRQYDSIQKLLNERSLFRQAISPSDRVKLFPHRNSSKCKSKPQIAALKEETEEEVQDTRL
T2 sequence (P26361 with tags, fused parts or gaps DEL508-508): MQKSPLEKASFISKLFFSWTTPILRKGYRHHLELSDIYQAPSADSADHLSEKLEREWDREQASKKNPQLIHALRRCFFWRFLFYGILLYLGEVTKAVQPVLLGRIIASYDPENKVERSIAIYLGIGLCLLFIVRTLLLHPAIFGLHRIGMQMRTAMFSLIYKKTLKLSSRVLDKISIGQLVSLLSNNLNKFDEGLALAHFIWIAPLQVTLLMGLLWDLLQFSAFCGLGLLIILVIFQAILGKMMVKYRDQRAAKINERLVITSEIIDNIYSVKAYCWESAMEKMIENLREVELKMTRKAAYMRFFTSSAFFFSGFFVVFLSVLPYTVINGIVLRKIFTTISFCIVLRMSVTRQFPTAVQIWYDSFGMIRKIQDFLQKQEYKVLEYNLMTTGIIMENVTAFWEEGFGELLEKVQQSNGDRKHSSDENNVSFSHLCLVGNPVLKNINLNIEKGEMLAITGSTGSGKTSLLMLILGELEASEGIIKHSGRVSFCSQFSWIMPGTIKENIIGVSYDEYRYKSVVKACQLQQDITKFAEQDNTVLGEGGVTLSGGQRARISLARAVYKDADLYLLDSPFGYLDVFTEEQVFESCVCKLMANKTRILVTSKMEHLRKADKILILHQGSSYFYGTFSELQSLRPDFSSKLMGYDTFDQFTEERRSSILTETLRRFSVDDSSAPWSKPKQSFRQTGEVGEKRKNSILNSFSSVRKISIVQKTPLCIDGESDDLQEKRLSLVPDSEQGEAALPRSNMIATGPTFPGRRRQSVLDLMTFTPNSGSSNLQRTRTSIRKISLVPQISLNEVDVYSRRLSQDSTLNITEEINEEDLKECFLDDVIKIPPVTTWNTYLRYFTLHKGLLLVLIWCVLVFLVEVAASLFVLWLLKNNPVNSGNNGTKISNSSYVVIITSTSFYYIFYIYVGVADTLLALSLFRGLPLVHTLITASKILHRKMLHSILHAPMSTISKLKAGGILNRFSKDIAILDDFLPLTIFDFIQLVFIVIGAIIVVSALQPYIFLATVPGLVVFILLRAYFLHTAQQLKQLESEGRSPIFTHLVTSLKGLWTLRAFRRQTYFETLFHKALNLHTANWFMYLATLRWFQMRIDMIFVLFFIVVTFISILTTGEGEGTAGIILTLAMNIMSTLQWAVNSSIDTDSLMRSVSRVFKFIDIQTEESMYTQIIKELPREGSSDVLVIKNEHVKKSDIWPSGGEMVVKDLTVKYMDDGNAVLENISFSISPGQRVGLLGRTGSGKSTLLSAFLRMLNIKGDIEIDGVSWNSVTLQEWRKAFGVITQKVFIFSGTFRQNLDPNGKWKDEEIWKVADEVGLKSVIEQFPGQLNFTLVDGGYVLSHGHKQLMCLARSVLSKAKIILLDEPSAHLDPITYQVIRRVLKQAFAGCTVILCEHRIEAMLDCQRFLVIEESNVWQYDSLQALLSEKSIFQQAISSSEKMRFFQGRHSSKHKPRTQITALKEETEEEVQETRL

For the molecule `NCCCS` [IE1, 3-aminopropane-1-thiol], in assay [1], the “Ability to inhibit the PDI activity of TG2” value is listed as “confirmed”. Moreover, in assay [2] (i.p. 5 d at 0.05M, 0.025M or 0.0125M, then 20 d of vehicle only), the “Sustaining CFTR function after wash out, compared with cysteamine” value was “more effective than cysteamine”. Besides, in assay [2] (i.p. for 5 d, IE1 concentration 0.05 to 0.00125), the “Rescue of CFTR function (Ussing chamber, small intestinal tissues)” value is “highly effective”. Moreover, the “PM-resident CFTR protein” value in assay [3] (0.1 μM) was “a sizeable fraction of the channel resided at the PM”. The “PM-resident CFTR protein after washout” value was “maintained” in assay [3] (0.1 μM, 24 h of washout) and “decreases” in assay [3] (48 h of washout). The “PM-resident CFTR protein after washout with EGCG added” value in assay [3] (48 h of washout, EGCG added) is reported as “completely maintained”.
